According to the supplement of paper PMC10307832:

Experiments:
Assay in all cases: relative viability (nuclei count vs DMSO), 5 days (fraction); higher = more cells survive
NCI-H596 = tested on: NCI-H596
Procedure, shortened: (§1)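 Lung cancer cell lines, seeded in 1536-well plates, were treated the following day by pin tool with a single drug or with five library-drug doses (not always all listed) in √10 steps on top of a fixed anchor-drug dose. Cells were fixed and nuclei stained in one step after 5 days, and nuclei were counted. Relative viability is the nuclei count for treated wells divided by that for vehicle wells, reported as medians of duplicate plates.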

NCI-H1666 = tested on: NCI-H1666
Procedure, shortened: as §1

NCI-H661 = tested on: NCI-H661
Procedure, shortened: as §1

NCI-H1944 = tested on: NCI-H1944
Procedure, shortened: as §1

IA-LM = tested on: IA-LM
Procedure, shortened: as §1

SK-LU-1 = tested on: SK-LU-1
Procedure, shortened: as §1

PC-14 = tested on: PC-14
Procedure, shortened: as §1

NCI-H1648 = tested on: NCI-H1648
Procedure, shortened: as §1

In the case of `CCNC(=O)c1noc(-c2cc(C(C)C)c(O)cc2O)c1-c1ccc(CN2CCOCC2)cc1` [Luminespib] + O=C(CCCCCCC(=O)Nc1ccccc1)NO [Vorinostat] (partner 1 µM), the relative viability (NCI-H596; first compound 0.002 µM) is reported as 0.61, the relative viability (NCI-H596; first compound 0.006325 µM) is reported as 0.553 and the relative viability (NCI-H596; first compound 0.02 µM) is reported as 0.434. The relative viability (NCI-H596; first compound 0.06325 µM) was 0.634, the relative viability (NCI-H596; first compound 0.2 µM) was 0.574 and the relative viability (NCI-H1666; first compound 0.002 µM) was 0.983. For the same compound, the relative viability (NCI-H1666; first compound 0.006325 µM) was 0.994, the relative viability (NCI-H1666; first compound 0.02 µM) was 1.19 and the relative viability (NCI-H1666; first compound 0.06325 µM) was 1.03. For the same compound, the relative viability (NCI-H1666; first compound 0.2 µM) was 0.909, the relative viability (NCI-H661; first compound 0.002 µM) was 0.777 and the relative viability (NCI-H661; first compound 0.006325 µM) was 0.803. The relative viability (NCI-H661; first compound 0.02 µM) was 0.759, the relative viability (NCI-H661; first compound 0.06325 µM) was 0.345 and the relative viability (NCI-H661; first compound 0.2 µM) was 0.306. The relative viability (NCI-H1944; first compound 0.002 µM) was 0.549, the relative viability (NCI-H1944; first compound 0.006325 µM) was 0.571 and the relative viability (NCI-H1944; first compound 0.02 µM) was 0.354. It also gave a relative viability (NCI-H1944; first compound 0.06325 µM) of 0.404, a relative viability (NCI-H1944; first compound 0.2 µM) of 0.153 and a relative viability (IA-LM; first compound 0.002 µM) of 0.918. For the same compound, the relative viability (IA-LM; first compound 0.006325 µM) was 0.934, the relative viability (IA-LM; first compound 0.02 µM) was 0.64 and the relative viability (IA-LM; first compound 0.06325 µM) was 0.077. For the same compound, the relative viability (IA-LM; first compound 0.2 µM) was 0.0416, the relative viability (SK-LU-1; first compound 0.002 µM) was 0.927 and the relative viability (SK-LU-1; first compound 0.006325 µM) was 0.596. The relative viability (SK-LU-1; first compound 0.02 µM) was 0.615, the relative viability (SK-LU-1; first compound 0.06325 µM) was 0.262 and the relative viability (SK-LU-1; first compound 0.2 µM) was 0.211. For the same compound, the relative viability (PC-14; first compound 0.002 µM) was 0.787, the relative viability (PC-14; first compound 0.006325 µM) was 0.639 and the relative viability (PC-14; first compound 0.02 µM) was 0.121. For the same compound, the relative viability (PC-14; first compound 0.06325 µM) was 0.0465, the relative viability (PC-14; first compound 0.2 µM) was 0.0692 and the relative viability (NCI-H1648; first compound 0.002 µM) was 0.299. For the same compound, the relative viability (NCI-H1648; first compound 0.006325 µM) was 0.502, the relative viability (NCI-H1648; first compound 0.02 µM) was 0.344 and the relative viability (NCI-H1648; first compound 0.06325 µM) was 0.566. It also gave a relative viability (NCI-H1648; first compound 0.2 µM) of 0.348.
